Laboratory results taken from patent US9440969B2, “Compounds and methods for kinase modulation, and indications therefor” (PLEXXIKON INC., priority 2009, dated 2016).

Tests used:
CYP3A4(BFC) = CYP3A4(BFC) (Homo sapiens, UniProt P08684); assay: CYP3A4 inhibition (substrate BFC); type: in vitro ADME; conditions: read-out: Cyp IC50 (μM) 3A4(BFC)
Description: (§1) CYP (Cytochrome P450) enzymes are the major drug metabolizing enzymes present in the liver. The inhibition of CYP enzyme activity (IC50) for each of CYP1A2, CYP2C19, CYP2C9, CYP2D6, CYP3A4(BFC) and CYP3A4(BQ) is determined for compounds, where inhibition of metabolism of a known substrate leads to a decrease in the fluorescence of the metabolized product. The fluorescence of the product is monitored as a function of compound concentration. Compounds are dissolved in dimethyl sulfoxide to a concentration of 100 mM. These are diluted […], into 82 μL of acetonitrile. An 11 μL aliquot of this solution is then added to 204 μL of cofactor mix (1.3% NADPH Regeneration system Solution A, 1.04% NADPH Regeneration system Solution B from BD Biosciences, 5% acetonitrile and 0.05% dimethyl sulfoxide). These are then serially diluted 1:1 (160 μL to 160 μL co-factor mix) for a total of 10 points. A 10 μL aliquot of this final mixture is dispensed into 384 well assay plates and incubated for 10 minutes at 37° C. Enzyme and substrate mix (10 μL; 0.5 pmol CYP1A2/5 μM CEC; 1.0 pmol CYP2C9/75 μM MFC; 0.5 pmol CYP2C19/25 μM CEC; 1.5 pmol CYP2D6/1.5 μM AMMC; 1.0 pmol CYP3A4/50 μM BFC; or 1.0 pmol CYP3A4/40 μM BQ) is added to these assay plates. Assay plates are incubated at 37° C. (CYP1A2-15 min; CYP2C9-45 min; CYP2C19, 2D6 and 3A4-30 min) and read in a Tecan Safire 2 plate reader (CYP1A2, 2C19 and 3A4 409 ex/460 em; CYP2C9 and 2D6 409 ex/530 em). The signal versus compound concentration is used to determine the IC50. The enzymes and substrates for this assay are obtained from BD Biosciences.

CYP2C19 = CYP2C19 (Homo sapiens, UniProt P33261); assay: CYP2C19 inhibition (fluorescent substrate CEC); type: in vitro ADME; conditions: read-out: Cyp IC50 (μM) 2C19
Description: as §1

CYP2D6 = CYP2D6 (Homo sapiens, UniProt P10635); assay: CYP2D6 inhibition (fluorescent substrate AMMC); type: in vitro ADME; conditions: read-out: Cyp IC50 (μM) 2D6
Description: as §1

CYP2C9 = CYP2C9 (Homo sapiens, UniProt P11712); assay: CYP2C9 inhibition (fluorescent substrate MFC); type: in vitro ADME; conditions: read-out: Cyp IC50 (μM) 2C9
Description: as §1

CYP3A4(BQ) = CYP3A4(BQ) (Homo sapiens, UniProt P08684); assay: CYP3A4 inhibition (substrate BQ); type: in vitro ADME; conditions: read-out: Cyp IC50 (μM) 3A4(BQ)
Description: as §1

[1] = Relative solubility by turbidity in aqueous buffers (pH 1.5, 4.5, 6.8, 7.4); type: physicochemical; conditions: for turbidity threshold (L, M, H) 1.4: pH 1.5 buffer (SGF); for turbidity threshold (L, M, H) 4.5: pH 4.5 buffer (SIF); for turbidity threshold (L, M, H) 6.8: pH 6.8 buffer (SIF); for turbidity threshold (L, M, H) 7.4: pH 7.4 buffer (HEPES)
In short: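 2-fold DMSO dilution series from 25 mM stocks were added to SGF (0.5M NaCl, pH 1.5), SIF (0.05M NaH2PO4, pH 4.5/6.8) or HEPES (10 mM, 150 mM NaCl, pH 7.4). Absorbance at 490, 535 and 650 nm; value is the concentration crossing OD 0.01, averaged over wavelengths. Low <31.3 μM, moderate 31.3–250 μM, high >250 μM.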

CYP1A2 = molecular target: T1, CYP1A2 (Homo sapiens, UniProt P05177); assay: CYP1A2 inhibition (fluorescent substrate CEC); type: in vitro ADME; conditions: read-out: Cyp IC50 (μM) 1A2
T1 sequence (P05177 1-516): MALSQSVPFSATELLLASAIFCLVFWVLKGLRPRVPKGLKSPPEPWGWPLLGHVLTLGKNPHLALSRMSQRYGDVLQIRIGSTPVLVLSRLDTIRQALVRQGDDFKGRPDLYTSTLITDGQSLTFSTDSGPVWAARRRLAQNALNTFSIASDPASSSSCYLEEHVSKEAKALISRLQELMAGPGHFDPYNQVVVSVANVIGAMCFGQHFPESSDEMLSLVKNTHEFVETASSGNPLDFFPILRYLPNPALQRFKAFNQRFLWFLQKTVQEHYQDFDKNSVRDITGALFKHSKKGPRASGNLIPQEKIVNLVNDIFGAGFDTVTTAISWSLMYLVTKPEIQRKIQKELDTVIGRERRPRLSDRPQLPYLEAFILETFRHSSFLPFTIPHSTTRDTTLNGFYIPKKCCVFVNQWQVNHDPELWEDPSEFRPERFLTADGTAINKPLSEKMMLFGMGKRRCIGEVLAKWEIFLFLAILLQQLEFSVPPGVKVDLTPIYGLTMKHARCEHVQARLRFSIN
Description: as §1

c-Raf-1 = c-Raf-1 (Homo sapiens, UniProt P04049); assay: c-Raf-1 kinase activity assay (AlphaScreen, biotin-MEK1 substrate); conditions: 100 μM ATP, 100 nM biotin-MEK1, 45 minutes at room temperature; read-out: Biochemical activity (IC50 μM) c-Raf-1
In short: (§2)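 Each Raf enzyme (0.1 ng) phosphorylates 100 nM biotin-MEK1 in pH 7.0 HEPES with Mg2+/Mn2+, 100 μM ATP final, 45 min at room temperature. Phospho-MEK1/2 antibody with AlphaScreen beads is read after 3 h. IC50 comes from an 8-point dilution series.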

B-Raf V600E = B-Raf V600E (Homo sapiens, UniProt P15056, V600E); assay: B-Raf V600E kinase activity assay (AlphaScreen, biotin-MEK1 substrate); conditions: 100 μM ATP, 100 nM biotin-MEK1, 45 minutes at room temperature, read-out: Biochemical activity (IC50 μM) V600E
In short: as §2

B-Raf = B-Raf (Homo sapiens, UniProt P15056); assay: B-Raf kinase activity assay (AlphaScreen, biotin-MEK1 substrate); conditions: 100 μM ATP, 100 nM biotin-MEK1, 45 minutes at room temperature; read-out: Biochemical activity (IC50 μM) B-Raf
In short: as §2

CYP2C9, sequence (P11712 whole entry): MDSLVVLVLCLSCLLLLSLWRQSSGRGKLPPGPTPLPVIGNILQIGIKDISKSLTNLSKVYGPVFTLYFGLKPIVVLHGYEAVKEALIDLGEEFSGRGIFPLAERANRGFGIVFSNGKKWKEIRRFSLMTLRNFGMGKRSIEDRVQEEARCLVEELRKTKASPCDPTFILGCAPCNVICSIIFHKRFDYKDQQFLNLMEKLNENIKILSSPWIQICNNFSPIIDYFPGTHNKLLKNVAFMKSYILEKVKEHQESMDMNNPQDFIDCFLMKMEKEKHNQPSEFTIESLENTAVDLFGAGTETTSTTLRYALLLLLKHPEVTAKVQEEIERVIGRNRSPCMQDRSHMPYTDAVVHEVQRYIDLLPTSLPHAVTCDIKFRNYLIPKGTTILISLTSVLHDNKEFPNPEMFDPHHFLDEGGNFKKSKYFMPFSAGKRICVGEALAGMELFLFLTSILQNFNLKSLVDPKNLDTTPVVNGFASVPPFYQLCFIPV
CYP2C19, sequence (P33261 whole entry): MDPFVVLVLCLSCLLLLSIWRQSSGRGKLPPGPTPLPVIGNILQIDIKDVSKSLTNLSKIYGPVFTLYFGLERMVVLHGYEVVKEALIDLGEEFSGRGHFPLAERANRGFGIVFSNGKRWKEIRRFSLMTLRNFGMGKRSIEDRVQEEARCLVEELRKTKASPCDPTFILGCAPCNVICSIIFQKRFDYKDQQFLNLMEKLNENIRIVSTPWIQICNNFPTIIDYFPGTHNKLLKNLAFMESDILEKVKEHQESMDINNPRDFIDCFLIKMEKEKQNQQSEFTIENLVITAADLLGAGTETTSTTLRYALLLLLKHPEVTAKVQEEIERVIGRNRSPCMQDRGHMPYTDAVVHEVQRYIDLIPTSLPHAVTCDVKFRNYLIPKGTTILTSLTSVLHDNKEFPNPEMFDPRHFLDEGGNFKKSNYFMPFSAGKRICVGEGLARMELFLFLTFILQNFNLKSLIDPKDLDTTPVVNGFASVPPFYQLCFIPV
CYP2D6, sequence (P10635 whole entry): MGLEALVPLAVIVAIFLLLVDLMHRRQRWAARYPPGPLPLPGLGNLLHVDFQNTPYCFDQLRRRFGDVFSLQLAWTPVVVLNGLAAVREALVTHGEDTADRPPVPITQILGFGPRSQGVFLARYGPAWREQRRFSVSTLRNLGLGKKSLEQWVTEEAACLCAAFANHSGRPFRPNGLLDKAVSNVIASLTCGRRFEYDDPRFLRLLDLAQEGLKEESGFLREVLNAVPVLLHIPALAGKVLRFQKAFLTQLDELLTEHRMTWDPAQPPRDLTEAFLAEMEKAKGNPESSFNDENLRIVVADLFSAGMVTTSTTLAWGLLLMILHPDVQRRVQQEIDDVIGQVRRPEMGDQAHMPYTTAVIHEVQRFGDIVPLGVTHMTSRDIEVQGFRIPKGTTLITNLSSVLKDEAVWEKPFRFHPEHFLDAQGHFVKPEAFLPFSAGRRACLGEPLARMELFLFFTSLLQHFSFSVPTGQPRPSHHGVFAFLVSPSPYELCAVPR
CYP3A4(BQ), sequence (P08684 whole entry): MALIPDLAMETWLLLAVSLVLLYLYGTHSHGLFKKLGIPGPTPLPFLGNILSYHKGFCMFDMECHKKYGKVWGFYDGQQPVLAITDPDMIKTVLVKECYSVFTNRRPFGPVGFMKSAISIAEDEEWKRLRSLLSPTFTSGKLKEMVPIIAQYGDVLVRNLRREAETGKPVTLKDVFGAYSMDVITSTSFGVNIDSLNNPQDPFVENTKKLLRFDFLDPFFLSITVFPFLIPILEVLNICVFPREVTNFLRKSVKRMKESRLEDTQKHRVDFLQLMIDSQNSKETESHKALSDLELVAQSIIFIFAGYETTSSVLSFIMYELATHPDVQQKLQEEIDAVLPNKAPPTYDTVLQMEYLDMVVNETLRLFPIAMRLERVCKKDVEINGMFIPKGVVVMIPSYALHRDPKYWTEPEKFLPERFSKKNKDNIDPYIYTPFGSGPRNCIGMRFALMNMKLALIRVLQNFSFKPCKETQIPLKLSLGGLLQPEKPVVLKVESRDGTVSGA
CYP3A4(BFC), sequence (P08684 whole entry): as above
c-Raf-1, sequence (P04049 whole entry Y340D/Y341D, form open): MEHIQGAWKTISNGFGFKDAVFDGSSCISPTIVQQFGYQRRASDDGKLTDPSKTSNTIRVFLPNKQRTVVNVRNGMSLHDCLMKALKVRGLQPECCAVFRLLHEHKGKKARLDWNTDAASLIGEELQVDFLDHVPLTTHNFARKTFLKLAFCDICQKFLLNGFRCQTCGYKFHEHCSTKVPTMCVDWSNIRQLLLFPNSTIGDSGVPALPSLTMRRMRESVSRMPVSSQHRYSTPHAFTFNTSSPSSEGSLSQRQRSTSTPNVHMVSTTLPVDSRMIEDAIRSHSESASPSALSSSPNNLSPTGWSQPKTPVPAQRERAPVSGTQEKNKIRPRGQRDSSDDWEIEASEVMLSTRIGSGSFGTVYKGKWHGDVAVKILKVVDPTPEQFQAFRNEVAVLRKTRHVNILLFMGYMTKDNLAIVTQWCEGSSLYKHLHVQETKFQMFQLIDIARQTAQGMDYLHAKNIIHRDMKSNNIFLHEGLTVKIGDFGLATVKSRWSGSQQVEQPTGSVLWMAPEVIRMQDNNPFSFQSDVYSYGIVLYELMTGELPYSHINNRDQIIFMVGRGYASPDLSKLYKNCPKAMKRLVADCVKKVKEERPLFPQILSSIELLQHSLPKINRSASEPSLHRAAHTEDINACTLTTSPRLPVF
B-Raf, sequence (P15056 whole entry): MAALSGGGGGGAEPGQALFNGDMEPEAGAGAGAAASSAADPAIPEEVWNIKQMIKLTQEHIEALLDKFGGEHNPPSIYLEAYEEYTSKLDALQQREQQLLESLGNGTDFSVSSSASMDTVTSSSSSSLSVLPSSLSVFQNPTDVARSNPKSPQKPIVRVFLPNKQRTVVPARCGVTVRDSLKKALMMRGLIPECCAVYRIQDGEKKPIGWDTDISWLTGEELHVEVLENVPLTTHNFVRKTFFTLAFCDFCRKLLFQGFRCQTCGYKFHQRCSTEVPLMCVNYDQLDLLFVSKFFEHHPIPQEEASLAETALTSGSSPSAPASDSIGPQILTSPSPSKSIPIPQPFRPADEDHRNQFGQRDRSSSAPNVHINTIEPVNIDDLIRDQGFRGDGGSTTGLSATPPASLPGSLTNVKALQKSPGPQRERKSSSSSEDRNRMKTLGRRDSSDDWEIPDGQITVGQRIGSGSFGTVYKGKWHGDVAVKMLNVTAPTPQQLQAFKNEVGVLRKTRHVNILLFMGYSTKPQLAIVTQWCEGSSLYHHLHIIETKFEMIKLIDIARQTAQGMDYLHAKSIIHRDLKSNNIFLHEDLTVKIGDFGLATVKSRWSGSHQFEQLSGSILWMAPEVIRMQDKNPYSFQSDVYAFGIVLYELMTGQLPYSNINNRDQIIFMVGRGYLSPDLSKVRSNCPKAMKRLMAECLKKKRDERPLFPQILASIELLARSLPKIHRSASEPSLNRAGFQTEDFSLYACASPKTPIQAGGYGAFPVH
B-Raf V600E, sequence (P15056 whole entry V600E): as the sequence (P15056 whole entry) above, with V600E counted along it

IC50 (CYP3A4(BFC)) [µM]	IC50 (CYP2C19) [µM]	IC50 (CYP2D6) [µM]	IC50 (CYP2C9) [µM]	IC50 (CYP3A4(BQ)) [µM]	IC50 (CYP1A2) [µM]	IC50 (c-Raf-1) [µM]	IC50 (B-Raf V600E) [µM]	IC50 (B-Raf) [µM]	SMILES	turbidity threshold (L, M, H) 1.4 [1]	turbidity threshold (L, M, H) 4.5 [1]	turbidity threshold (L, M, H) 6.8 [1]	turbidity threshold (L, M, H) 7.4 [1]
> 10	< 5	> 10	> 10	> 10	> 10	–	–	–	CCCS(=O)(=O)Nc1ccc(F)c(C(=O)c2c[nH]c3ncc(-c4ccc5cccnc5c4)cc23)c1F [P-0033, Propane-1-sulfonic acid [2,4-difluoro-3-(5-quinolin-7-yl-1H-pyrrolo[2,3-b]pyridine-3-carbonyl)-phenyl]-amide]	L (low solubility if the threshold concentration is <31.3 μM)	L (low solubility if the threshold concentration is <31.3 μM)	L (low solubility if the threshold concentration is <31.3 μM)	L (low solubility if the threshold concentration is <31.3 μM)
> 10	> 10	> 10	> 10	> 10	> 10	–	–	–	CCCS(=O)(=O)Nc1ccc(F)c(C(=O)c2c[nH]c3ncc(-c4ccc5ncccc5c4)cc23)c1F [P-0034, Propane-1-sulfonic acid [2,4-difluoro-3-(5-quinolin-6-yl-1H-pyrrolo[2,3-b]pyridine-3-carbonyl)-phenyl]-amide]	–	–	–	–
5 to 10	5 to 10	> 10	> 10	> 10	> 10	< 0.1	–	–	CCCS(=O)(=O)Nc1ccc(F)c(C(=O)c2c[nH]c3ncc(-c4cnn(C5CCN(C(=O)OC(C)(C)C)CC5)c4)cc23)c1F [P-1001, 4-(4-{3-[2,6-Difluoro-3-(propane-1-sulfonylamino)-benzoyl]-1H-pyrrolo[2,3-b]pyridin-5-yl}-pyrazol-1-yl)-piperidine-1-carboxylic acid tert-butyl ester]	M (moderate solubility if the threshold concentration is 31.3 μM to 250 μM)	L (low solubility if the threshold concentration is <31.3 μM)	M (moderate solubility if the threshold concentration is 31.3 μM to 250 μM)	L (low solubility if the threshold concentration is <31.3 μM)
< 5	> 10	> 10	< 5	> 10	> 10	–	–	–	O=C(c1c(F)ccc(NS(=O)(=O)c2cc(F)ccc2F)c1F)c1c[nH]c2ncc(-c3cnc(NC4CC4)nc3)cc12 [P-1506, N-{3-[5-(2-Cyclopropylamino-pyrimidin-5-yl)-1H-pyrrolo[2,3-b]pyridine-3-carbonyl]-2,4-difluoro-phenyl}-2,5-difluoro-benzenesulfonamide]	L (low solubility if the threshold concentration is <31.3 μM)	L (low solubility if the threshold concentration is <31.3 μM)	L (low solubility if the threshold concentration is <31.3 μM)	L (low solubility if the threshold concentration is <31.3 μM)
> 10	> 10	> 10	> 10	> 10	> 10	–	–	–	COc1ncc(-c2cnc3[nH]cc(C(=O)c4cccc(NS(=O)(=O)c5ccccc5F)c4F)c3c2)cn1 [P-1518, 2-Fluoro-N-{2-fluoro-3-[5-(2-methoxy-pyrimidin-5-yl)-1H-pyrrolo[2,3-b]pyridine-3-carbonyl]-phenyl}-benzenesulfonamide]	L (low solubility if the threshold concentration is <31.3 μM)	L (low solubility if the threshold concentration is <31.3 μM)	L (low solubility if the threshold concentration is <31.3 μM)	L (low solubility if the threshold concentration is <31.3 μM)
> 10	> 10	> 10	> 10	> 10	> 10	< 0.1	< 0.1	< 0.1	COc1ccc(-c2cnc3[nH]cc(C(=O)c4c(F)ccc(NS(=O)(=O)c5cc(F)ccc5F)c4F)c3c2)cn1 [P-1404, N-{2,4-Difluoro-3-[5-(6-methoxy-pyridin-3-yl)-1H-pyrrolo[2,3-b]pyridine-3-carbonyl]-phenyl}-2,5-difluoro-benzenesulfonamide]	–	–	–	–
